In ChEMBL document CHEMBL3232835, “Discovery of trifluoromethyl(pyrimidin-2-yl)azetidine-2-carboxamides as potent, orally bioavailable TGR5 (GPBAR1) agonists: structure-activity relationships, lead optimization, and chronic in vivo efficacy” (J Med Chem, 2014):
Values belong to the molecule of their own block, whether it stands above or below them.

Legend:
[1] = Cmax in mouse at 20 mg/kg, po; assay type: ADME, organism-based; parameters: dose 20 mg/kg, route oral; conditions: in vivo
[2] = AUC in mouse at 5 mg/kg, iv; assay type: ADME, organism-based; parameters: dose 5 mg/kg, route intravenous; conditions: plasma
[3] = AUC in mouse at 20 mg/kg, po; assay type: ADME, organism-based; parameters: dose 20 mg/kg, route oral; conditions: plasma
[4] = Cmax in mouse at 5 mg/kg, iv; assay type: ADME, organism-based; parameters: dose 5 mg/kg, route intravenous; conditions: in vivo
[5] = Volume of distribution at steady state in mouse at 5 mg/kg, iv; assay type: ADME, organism-based; parameters: dose 5 mg/kg, route intravenous; conditions: in vivo, read-out: Vdss
[6] = Oral bioavailability in mouse at 20 mg/kg; assay type: ADME, organism-based; conditions: in vivo
[7] = in vitro; conditions: human, Caco-2
[8] = AUC in mouse plasma at 20 mg/kg up to 5 hrs; assay type: ADME, organism-based; parameters: time < 5 hr, dose 20 mg/kg
[9] = in vitro; conditions: human, Caco-2; remark: listed apart in the source
[10] = AUC in ob/ob mouse at 30 mg/kg, po qd measured on day 37; assay type: ADME, organism-based; parameters: dose 30 mg/kg, route oral; conditions: plasma
[11] = Cmax in ob/ob mouse at 30 mg/kg, po qd measured on day 1; assay type: ADME, organism-based; parameters: dose 30 mg/kg, route oral; conditions: in vivo
[12] = Cmax in ob/ob mouse at 30 mg/kg, po qd measured on day 37; assay type: ADME, organism-based; parameters: dose 30 mg/kg, route oral; conditions: in vivo
[13] = Lipophilicity, log D of the compound at pH 6.8; assay type: physicochemical; conditions: buffer
[14] = AUC in ob/ob mouse at 30 mg/kg, po qd measured on day 1; assay type: ADME, organism-based; parameters: dose 30 mg/kg, route oral; conditions: plasma

- Cmax [1]: 1.07 µM
- AUC [2]: 2.67 µM·h
- AUC [3]: 2.54 µM·h
- Cmax [4]: 4.52 µM
- Vd [5]: 1.6 L/kg
- bioavailability [6]: 24%
Compound: CN1CCN(c2cc(N3CCC[C@@H](C(=O)NCCc4ccc(C#N)cc4)C3)nc(C(F)(F)F)n2)CC1

- Papp A→B [7]: 1.36 ×10⁻⁶ cm/s
- AUC at 5 h [8]: 0.108 µM·h
- Papp B→A [9]: 13 ×10⁻⁶ cm/s
Compound: N#Cc1ccc(CCNC(=O)[C@@H]2CCCN(c3cc(N4CCC(C(=O)O)CC4)nc(C(F)(F)F)n3)C2)cc1

- Papp A→B [7]: 1.02 ×10⁻⁶ cm/s
- AUC at 5 h [8]: 1.05 µM·h
- Papp B→A [9]: 13.5 ×10⁻⁶ cm/s
Compound: CC1(C(=O)O)CCN(c2cc(N3CCC[C@@H](C(=O)NCCc4ccc(C#N)cc4)C3)nc(C(F)(F)F)n2)CC1

- Papp A→B [7]: 2.12 ×10⁻⁶ cm/s
- AUC at 5 h [8]: 5.02 µM·h
- Papp B→A [9]: 6.4 ×10⁻⁶ cm/s
Compound: N#Cc1ccc(CCNC(=O)[C@@H]2CCCN(c3cc(N4CCC(Oc5ccc(CC(=O)O)cc5)CC4)nc(C(F)(F)F)n3)C2)cc1

- AUC at 5 h [8]: 14.2 µM·h
Compound: N#Cc1ccc(CCNC(=O)[C@@H]2CCN2c2cc(N3CCC(Oc4ccc(CC(=O)O)cc4)CC3)nc(C(F)(F)F)n2)cc1

- AUC at 5 h [8]: 7.53 µM·h
Compound: N#Cc1ccc(CCNC(=O)[C@@H]2CCN2c2cc(N3CCC(Oc4ccc(C(=O)O)cc4)CC3)nc(C(F)(F)F)n2)cc1

- Papp A→B [7]: 2.7 ×10⁻⁶ cm/s
- AUC at 5 h [8]: 3.74 µM·h
- Papp B→A [9]: 12.9 ×10⁻⁶ cm/s
Compound: COc1cc(C2CCN(c3cc(N4CC[C@H]4C(=O)NCCc4ccc(C#N)cc4)nc(C(F)(F)F)n3)CC2)ccc1C(=O)O

- AUC at 5 h [8]: 13.9 µM·h
Compound: N#Cc1ccc(CCNC(=O)[C@@H]2CCN2c2cc(-c3ccc(-c4ccc(C(=O)O)cc4)cc3)nc(C(F)(F)F)n2)cc1

- Cmax [1]: 9.75 µM
- AUC [2]: 13.9 µM·h
- AUC [10]: 37.5 µM·h
- AUC at 5 h [8]: 11.4 µM·h
- Cmax [11]: 4.77 µM
- AUC [3]: 53.8 µM·h
- Cmax [4]: 12 µM
- Cmax [12]: 5.17 µM
- Vd [5]: 1.31 L/kg
- logD [13]: 2.5
- bioavailability [6]: 96.5%
- AUC [14]: 45.5 µM·h
Compound: N#Cc1ccc(CCNC(=O)[C@@H]2CCN2c2cc(-c3ccc([C@H]4CC[C@H](C(=O)O)CC4)cc3)nc(C(F)(F)F)n2)cc1
